Consider 9 molecules from PMC8813873, “The HGR motif is the antiangiogenic determinant of vasoinhibin: implications for a therapeutic orally active oligopeptide” (Angiogenesis, 2021).

For series [1], the system named is HUVEC. The conditions noted are these: for Span: span of fitted dose-response curve, VEGF + bFGF-induced HUVEC proliferation relative to lowest and highest dose of CRIVi45-51. The procedure: HUVEC were seeded at 14,000 cells cm^−2 in a 96-well plate and, after 24 h, starved with 0.5% FBS for 12 h. The medium was refreshed with 20% FBS-F12K and incubated with 100 μg mL^−1 heparin together with 25 ng mL^−1 VEGF and 20 ng mL^−1 bFGF for 24 h in combination with a single dose (100 nM) or different concentrations of PRL, vasoinhibin, or synthetic oligopeptides. DNA synthesis was quantified by the DNA incorporation of the thymidine analog 5-ethynyl-2’-deoxyuridine (EdU, Sigma) labeled by the click reaction with fluorescent Azide Fluor 545 (Sigma-Aldrich) as reported.
Endothelial cell proliferation. BUVEC-E6E7 cells seeded at 14,000 cells cm^-2 in a 96-well plate were starved with 0.1% FBS for 24 h and treated or not with VEGF (50 ng mL^-1) in starvation medium with or without different concentrations of five peptides synthesized along the 45 to 58 residue sequence of human PRL or with recombinant vasoinhibin of 123 amino acids (positive control). HUVEC cells were seeded at 14,000 cells cm^-2 in a 96-well plate for 24 h and starved with 0.5% FBS for 12 h. Medium was then replaced by 20% FBS-F12K and 100 μg mL^-1 heparin containing or not VEGF (25 ng mL^-1), bFGF (20 ng mL^-1), IL-1b (10 ng mL^-1), or BK (10 μM) or a combination of 25 ng mL^-1 of VEGF and 20 ng mL^-1 of bFGF for 24 h in the presence or absence of a single dose (100 nM) or different doses of PRL (negative control), recombinant vasoinhibin, Vi45-51, synthetic peptides having the same residue composition as the 45-51 segment but in scrambled order (negative control), Vi45-51 subjected to alanine scanning mutagenesis, a tripeptide comprising residues 46 to 48 of vasoinhibin (Vi46-48), a Vi45-51 where G47 was deleted (des-G^47), a conserved version of the Vi45-51 (cVi45-51) and the QGR tripeptide, heptapeptides comprising residues 39 to 45 of growth hormone (GH39-45) or placental lactogen (PL39-45), tripeptides EQK and QKY, the dipeptide QK (Table S2), alanine mutants of the vasoinhibin with 123 residues (Vi-H46A, Vi-R48A, Vi-H46A/R48A), alanine mutants of PRL (PRL-E161A, PRL-E162A, PRL-E161A/E162A), CRIVi45-51, antiangiogenic proteins (endostatin, angiostatin), antiangiogenic oligopeptides (anginex, cilengitide), or antiangiogenic tyrosine-kinase inhibitors (pazopanib, sunitinib, sorafenib). DNA synthesis was quantified by the DNA incorporation of the thymidine analogue 5-ethynyl-2’-deoxyuridine (EdU, Sigma) added at the time of treatments and labelled by the click reaction with fluorescent Azide Fluor 545 (Sigma-Aldrich) as reported. Images were obtained in a fluorescent inverted microscope (Olympus IX51, Japan) and quantified using the CellProfiler software. The number of EdU-positive cells over total DNA (Hoechst)-stained cells was expressed as percentage proliferation. B16-F10 cells and HUVEC were seeded at 12,600 cells cm^-2 and 7,400 cells cm^-2, respectively, in a 24-well plate and incubated for different times in complete medium in the absence or presence of 100 nM CRIVi45-51 added every 24 h. Cells were trypsinized and counted.

The nature of series [2]: Heat treatment, residual antiproliferative activity. It counts as physicochemical. The following applies: 2 μM solution, 97 °C, 15 min; read-out inhibition of VEGF + bFGF-induced HUVEC proliferation at 10 nM, n = 9.
A further series relates to B16-F10 melanoma tumors. The series can be described thus: B16-F10 melanoma tumor model. It is filed as in vivo. The following applies: C57BL6 mice. As for the experimental part: The mouse model of primary tumor development based on the use of B16-F10 melanoma cells was used as previously reported. Briefly, anesthetized female C57BL6 mice (8–12 weeks-old) were inoculated into their right flank with 10^5 B16-F10 cells. Five days after tumor cell inoculation, mice were treated daily with vehicle (NS) or CRIVi45–51 injected into the lateral tail vein or via intragastric gavage for the 8 d following tumor cell injection. Animals were then euthanized by cervical dislocation and the tumors weighted and processed to evaluate blood vessels by immunofluorescence or RT-qPCR.
Tumor model. Female C57BL6 mice (8-12 weeks-old) under 2.5% isoflurane anesthesia (SomnoSuite system, Kent Scientific, Torrington, CT) were inoculated into their right flank with 10^5 B16-F10 cells in 50 μL PBS. Tumor length and width were measured daily, and volume was estimated by the formula: Volume = (length x width^2) x 0.5. Five days after tumor cell inoculation, mice were injected daily into the lateral tail vein with vehicle (normal saline) or 0.1 or 1.0 mg kg^-1 CRIVi45-51, and tumor volumes were assessed daily for the following 8 d. In other experiments, 1.0 mg kg^-1 CRIVi45-51 or vehicle was delivered daily intragastrically through a 20G x 1.5’’ curved metal gavage canula (Cadence Science, Staunton, VA) for the 8 d following tumor cell injection. Animals were then euthanized by cervical dislocation and the tumors processed or frozen to evaluate blood vessels by immunofluorescence or RT-qPCR, respectively. […] Tumor sections were cover-slipped with Vectashield H-1000 (Vector Laboratories) and digitalized at 20X and 40X magnification under a fluorescence microscope (Olympus BX60). The number of vessels per tumor area measured vascular density. CD-31 and VE-Cad mRNA levels were quantified by RT-qPCR following the method already described in the retinal angiogenesis assay section.

The subject of the next series is B16-F10 cells. The series is described as follows: B16-F10 cell growth in vitro (cell counting). The conditions noted are these: 100 nM added every 24 h, cell density over time, n = 9. It is filed as cell-based, mouse. The procedure: (§1) Endothelial cell proliferation. BUVEC-E6E7 cells seeded at 14,000 cells cm^-2 in a 96-well plate were starved with 0.1% FBS for 24 h and treated or not with VEGF (50 ng mL^-1) in starvation medium with or without different concentrations of five peptides synthesized along the 45 to 58 residue sequence of human PRL or with recombinant vasoinhibin of 123 amino acids (positive control). HUVEC cells were seeded at 14,000 cells cm^-2 in a 96-well plate for 24 h and starved with 0.5% FBS for 12 h. […] DNA synthesis was quantified by the DNA incorporation of the thymidine analogue 5-ethynyl-2’-deoxyuridine (EdU, Sigma) added at the time of treatments and labelled by the click reaction with fluorescent Azide Fluor 545 (Sigma-Aldrich) as reported. Images were obtained in a fluorescent inverted microscope (Olympus IX51, Japan) and quantified using the CellProfiler software. The number of EdU-positive cells over total DNA (Hoechst)-stained cells was expressed as percentage proliferation. […] Cells were trypsinized and counted.

The test system of series [3] is HUVEC. The series can be described thus: HUVEC cell density over time (cell counting). It counts as cell-based, human. The following applies: 100 nM added every 24 h, complete medium, n = 9. The procedure: as §1
Another series addresses pepsin (Sus scrofa, UniProt P00791). The series can be described thus: Pepsin digestion, residual antiproliferative activity. The following applies: 4 μM, 1:20 protease to substrate molar ratio, 40 mM HCl, 37 °C, 5 h; read-out inhibition of VEGF + bFGF-induced HUVEC proliferation at 10 nM, n = 9.
Setting [4] is: VEGF 25 ng/mL + bFGF 20 ng/mL-induced HUVEC proliferation, 24 h, EdU incorporation, non-linear best fit, n = 9.

Read-outs that look alike come from different tables or passages of the source. Square brackets hold non-standard residues; d marks the D form. Ends that are not written are not given here. Peptide text beside a SMILES is read from it.

Sequence of pepsin (P00791 60-385): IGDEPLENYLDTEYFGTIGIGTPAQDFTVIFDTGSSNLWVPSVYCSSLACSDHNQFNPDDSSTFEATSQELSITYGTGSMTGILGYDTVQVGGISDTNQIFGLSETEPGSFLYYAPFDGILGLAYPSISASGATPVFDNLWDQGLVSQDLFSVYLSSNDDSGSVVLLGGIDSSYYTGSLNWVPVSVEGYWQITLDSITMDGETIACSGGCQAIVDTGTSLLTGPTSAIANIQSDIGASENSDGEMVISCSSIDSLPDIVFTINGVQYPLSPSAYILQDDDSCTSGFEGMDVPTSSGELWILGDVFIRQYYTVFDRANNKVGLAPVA

In the case of `CC[C@@H](C)[C@H]1NC(=O)[C@@H]([C@H](C)O)NC(=O)[C@@H](Cc2c[nH]cn2)NC(=O)CNC(=O)[C@@H](CCCNC(=N)N)NC(=O)CNC(=O)[C@@H](Cc2ccccc2)NC1=O` [CRIVi45–51, cyclic-retro-inverse-vasoinhibin-(45–51)-peptide] (cyclo([dI][dF]G[dR]G[dH][dT])), in the series on HUVEC [1] (ratio of IC50 values, VEGF + bFGF-induced HUVEC proliferation), the “fold lower IC50 than other antiangiogenic proteins (endostatin and angiostatin) and peptides (anginex and cilengitide)” value was 2.7- to 214 fold. Further, the Span with HUVEC [1] (non-linear best fit, n = 9) was 86.86%. The “activity after heat inactivation” value in series [2] is given as “retained full activity”. Besides, the “tumor growth, oral administration” value in the series on B16-F10 melanoma tumors (B16-F10, 1.0 mg/kg daily intragastric gavage, 8 d, n = 9) is recorded as “decreased tumor growth with similar efficacy to intravenous delivery”. In addition, the “tumor growth, intravenous” value in the series on B16-F10 melanoma tumors (B16-F10, daily i.v. 0.1 or 1.0 mg/kg for 8 d from day 5, n = 9) is “reduced tumor growth in a dose-related manner”. Also, in the series on B16-F10 melanoma tumors (B16-F10 tumors, daily i.v., n = 9), the “tumor vascular density and expression of CD31” value is listed as “reduce”. The “growth of melanoma cells in vitro” value in the series with B16-F10 cells was “did not inhibit”. In the series on HUVEC [3], the “HUVEC cell density over time” value is given as “reduces proliferation”. Moreover, the “resistance to pepsin degradation” value on pepsin is given as “resistant”.

Turning to `Cc1ccc(Nc2nccc(N(C)c3ccc4c(C)n(C)nc4c3)n2)cc1S(N)(=O)=O` [Pazopanib, reference compound], the Span in the series on HUVEC [1] (non-linear best fit, n = 9) came to 83.73%.

On to `CNC(=O)c1cc(Oc2ccc(NC(=O)Nc3ccc(Cl)c(C(F)(F)F)c3)cc2)ccn1` [Sorafenib, reference compound], for which the Span with HUVEC [1] (non-linear best fit, n = 9) is recorded as 106.00%.

In the case of `CCN(CC)CCNC(=O)c1c(C)[nH]c(/C=C2\C(=O)Nc3ccc(F)cc32)c1C` [Sunitinib, reference compound], the Span with HUVEC [1] (non-linear best fit, n = 9) was determined as 93.64%.

“ANIKLSVQMKLFKRHLKWKIIVKLNDGRELSLD [Anginex, reference compound]”: in the series on HUVEC [1] (non-linear best fit, n = 9), the Span stood at 73.13%.

Regarding “Ac-THGRGFI-NH2 [Vi45–51, vasoinhibin-(45-51)-peptide]”, the IC50 with HUVEC [1] (24 h) is approximately 0.15 nM.

Consider Angiostatin, for which the IC50 in the series on HUVEC [1] (setting [4]) was determined as 0.388 nM. In addition, the Span in the series with HUVEC [1] (non-linear best fit, n = 9) is reported as 68.47%.

Turning to Endostatin, the IC50 in the series with HUVEC [1] (setting [4]) was 31.2 nM. Besides, the Span in the series with HUVEC [1] (non-linear best fit, n = 9) is 49.98%.

B1: PRL: Recombinant human prolactin (protein, UniProt P01236 29-227, looked up)
Prolactin: LPICPGGAARCQVTLRDLFDRAVVLSHYIHNLSSEMFSEFDKRYTHGRGFITKAINSCHTSSLATPEDKEQAQQMNQKDFLSLIVSILRSWNEPLYHLVTEVRGMQEAPEAILSKAVEIEEQTKRLLEGMELIVSQVHPETKENEIYPVWSGLPSLQMADEESRLSAYYNLLHCLRRDSHKIDNYLKLLKCRIIHNNNC
Turning to B1, the “dose-response inhibition of VEGF + bFGF-induced HUVEC proliferation (result in words)” value in the series with HUVEC [1] (VEGF 25 ng/mL + bFGF 20 ng/mL, 24 h, EdU, n = 9) was “not antiangiogenic”.
